Test: recombinant UMI read abundance after kanamycin selection (control-corrected) (log10(CPM+1)); higher = more efficient recombination; extreme values may be limits of the assay; sequences stand for … in AGTGCAGAGAAAATCGGCCAGTTTTCTCTGCCTGCAGTCCGCATGCCGTGGGACCCCTTGGGTTCTAACCTGTTGCCTAGATTTATGCAGCGGACTGCCTTTCTCCCAAAGTGATAAACCGG…AGGTTGGTTTCACT; site = the 11-nt donor
Protocol: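 Pooled E. coli donor-specificity screen for the IS621 bridge recombinase. Each library member carries a reprogrammed 11-nt donor and a full-length LE bridge RNA expressed in cis from the natural promoter, with a paired donor-binding loop (8-nt LDG + 4-nt RDG) and a target-binding loop fixed to T5. It is co-electroporated with a T5 target plasmid; recombinase is induced with 0.07 mM IPTG and recombinants are selected on kanamycin. UMIs are counted as CPM, averaged over two biological replicates and corrected by the unselected control. Molecule = full bridge RNA written as DNA, built from the T5 scaffold: LDG = donor specificity nt 1-8, RDG = reverse complement of nt 8-11.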
With “ACGTTTACATGGACCGGTTTTCCCGGTAATCCGTATTTGCT (site TCGTTTACTAG)” the “recombinant UMI read abundance (log10)” value was 1.37. With “ACGTTTGCATGGACCGGTTTTCCCGGTAATCCGTATTTGTC (site ACGTTTGCTGA)” the “recombinant UMI read abundance (log10)” value was 1.45. For “ACTAAGTCATGGACCGGTTTTCCCGGTAATCCGTATTTGAG (site ACTAAGTCTCT)”, the “recombinant UMI read abundance (log10)” value was 2.46. With “ACTACACCATGGACCGGTTTTCCCGGTAATCCGTATTTGCC (site ACTACACCTGG)” the “recombinant UMI read abundance (log10)” value was 0. For “ACTACAGCATGGACCGGTTTTCCCGGTAATCCGTATTTGAC (site ACTACAGCTGT)”, the “recombinant UMI read abundance (log10)” value was 2.36. With “ACTACCCCATGGACCGGTTTTCCCGGTAATCCGTATTTGAC (site ACTACCCCTGT)” the “recombinant UMI read abundance (log10)” value was 0.736. For “ACTAGAACATGGACCGGTTTTCCCGGTAATCCGTATTTGGG (site ACTAGAACTCA)”, the “recombinant UMI read abundance (log10)” value was 0.0109. For “ACTAGAACATGGACCGGTTTTCCCGGTAATCCGTATTTGGG (site ACTAGAACTCC)”, the “recombinant UMI read abundance (log10)” value was 0.113. In the case of “ACTAGAACATGGACCGGTTTTCCCGGTAATCCGTATTTGGG (site ACTAGAACTCG)”, the “recombinant UMI read abundance (log10)” value is reported as 0.00448. In the case of “ACTAGAACATGGACCGGTTTTCCCGGTAATCCGTATTTGGG (site ACTAGAACTCT)”, the “recombinant UMI read abundance (log10)” value is reported as 0.0325. With “ACTAGAACATGGACCGGTTTTCCCGGTAATCCGTATTTGTG (site ACTAGAACTCA)” the “recombinant UMI read abundance (log10)” value was 1.35. With “ACTAGAACATGGACCGGTTTTCCCGGTAATCCGTATTTGTG (site ACTAGAACTCC)” the “recombinant UMI read abundance (log10)” value was 0.0298. For “ACTAGAACATGGACCGGTTTTCCCGGTAATCCGTATTTGTG (site ACTAGAACTCG)”, the “recombinant UMI read abundance (log10)” value was 0.285. In the case of “ACTAGAACATGGACCGGTTTTCCCGGTAATCCGTATTTGTG (site ACTAGAACTCT)”, the “recombinant UMI read abundance (log10)” value is reported as 0. In the case of “ACTAGTGCATGGACCGGTTTTCCCGGTAATCCGTATTTGGA (site ACTAGTGCTAC)”, the “recombinant UMI read abundance (log10)” value is reported as 0. In the case of “ACTAGTGCATGGACCGGTTTTCCCGGTAATCCGTATTTGGA (site ACTAGTGCTCC)”, the “recombinant UMI read abundance (log10)” value is reported as 0.0115. For “ACTAGTGCATGGACCGGTTTTCCCGGTAATCCGTATTTGGA (site ACTAGTGCTGC)”, the “recombinant UMI read abundance (log10)” value was 0. In the case of “ACTAGTGCATGGACCGGTTTTCCCGGTAATCCGTATTTGGA (site ACTAGTGCTTC)”, the “recombinant UMI read abundance (log10)” value is reported as 1.36. For “ACTATAGCATGGACCGGTTTTCCCGGTAATCCGTATTTGCA (site ACTATAGCTTG)”, the “recombinant UMI read abundance (log10)” value was 1.94. With “ACTCAAGCATGGACCGGTTTTCCCGGTAATCCGTATTTGTT (site ACTCAAGCTAA)” the “recombinant UMI read abundance (log10)” value was 1.72. In the case of “ACTCCAGCATGGACCGGTTTTCCCGGTAATCCGTATTTGTG (site ACTCCAGCTCA)”, the “recombinant UMI read abundance (log10)” value is reported as 0.753. With “ACTCGAGCATGGACCGGTTTTCCCGGTAATCCGTATTTGCT (site ACTCGAGCTAG)” the “recombinant UMI read abundance (log10)” value was 1.64. In the case of “ACTCTAGCATGGACCGGTTTTCCCGGTAATCCGTATTTGCC (site ACTCTAGCTGG)”, the “recombinant UMI read abundance (log10)” value is reported as 0. In the case of “ACTGAATCATGGACCGGTTTTCCCGGTAATCCGTATTTGCC (site ACTGAATCTGG)”, the “recombinant UMI read abundance (log10)” value is reported as 2.1. With “ACTGCATCATGGACCGGTTTTCCCGGTAATCCGTATTTGGA (site ACTGCATCTTC)” the “recombinant UMI read abundance (log10)” value was 1.22. With “ACTGGAACATGGACCGGTTTTCCCGGTAATCCGTATTTGAG (site ACTAGAACTCT)” the “recombinant UMI read abundance (log10)” value was 1.69. In the case of “ACTGGAACATGGACCGGTTTTCCCGGTAATCCGTATTTGAG (site ACTCGAACTCT)”, the “recombinant UMI read abundance (log10)” value is reported as 0.239. For “ACTGGAACATGGACCGGTTTTCCCGGTAATCCGTATTTGAG (site ACTGGAACTCT)”, the “recombinant UMI read abundance (log10)” value was 2.11. In the case of “ACTGGAACATGGACCGGTTTTCCCGGTAATCCGTATTTGAG (site ACTTGAACTCT)”, the “recombinant UMI read abundance (log10)” value is reported as 0.0249. For “ACTGGAGCATGGACCGGTTTTCCCGGTAATCCGTATTTGCT (site ACTGGAGCTAG)”, the “recombinant UMI read abundance (log10)” value was 1.86. With “ACTGGATCATGGACCGGTTTTCCCGGTAATCCGTATTTGAG (site ACTGGATCTCT)” the “recombinant UMI read abundance (log10)” value was 2.41. With “ACTGGATCATGGACCGGTTTTCCCGGTAATCCGTATTTGCA (site ACAGTATCTTG)” the “recombinant UMI read abundance (log10)” value was 0.973. In the case of “ACTGGATCATGGACCGGTTTTCCCGGTAATCCGTATTTGCA (site ACTGGATCTTG)”, the “recombinant UMI read abundance (log10)” value is reported as 1.64. For “ACTGGGACATGGACCGGTTTTCCCGGTAATCCGTATTTGAG (site ACTGGGACTCT)”, the “recombinant UMI read abundance (log10)” value was 1.39. With “ACTGGTACATGGACCGGTTTTCCCGGTAATCCGTATTTGAA (site ACTGGTACTTT)” the “recombinant UMI read abundance (log10)” value was 1.1. With “ACTGTATCATGGACCGGTTTTCCCGGTAATCCGTATTTGAA (site ACAGTATCTTG)” the “recombinant UMI read abundance (log10)” value was 0.
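Note: IS621 bridge recombinase in Escherichia coli cells against a fixed T5 target plasmid.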
